Test results as given in ChEMBL document CHEMBL4715706, “Discovery of Benzotriazolo[4,3-d][1,4]diazepines as Orally Active Inhibitors of BET Bromodomains” (ACS Med Chem Lett, 2016).
Active and inactive are the calls of the source. No cut-off for these calls is given here.

Legend:
[1] = target: T1, Bromodomain-containing protein 9 (Homo sapiens, UniProt Q9H8M2); assay: Inhibition of His-tagged BRD9 (unknown origin) using biotinylated acetylated peptide as substrate measured after 20 mins by AlphaLISA assay
T1 sequence (Q9H8M2 whole entry): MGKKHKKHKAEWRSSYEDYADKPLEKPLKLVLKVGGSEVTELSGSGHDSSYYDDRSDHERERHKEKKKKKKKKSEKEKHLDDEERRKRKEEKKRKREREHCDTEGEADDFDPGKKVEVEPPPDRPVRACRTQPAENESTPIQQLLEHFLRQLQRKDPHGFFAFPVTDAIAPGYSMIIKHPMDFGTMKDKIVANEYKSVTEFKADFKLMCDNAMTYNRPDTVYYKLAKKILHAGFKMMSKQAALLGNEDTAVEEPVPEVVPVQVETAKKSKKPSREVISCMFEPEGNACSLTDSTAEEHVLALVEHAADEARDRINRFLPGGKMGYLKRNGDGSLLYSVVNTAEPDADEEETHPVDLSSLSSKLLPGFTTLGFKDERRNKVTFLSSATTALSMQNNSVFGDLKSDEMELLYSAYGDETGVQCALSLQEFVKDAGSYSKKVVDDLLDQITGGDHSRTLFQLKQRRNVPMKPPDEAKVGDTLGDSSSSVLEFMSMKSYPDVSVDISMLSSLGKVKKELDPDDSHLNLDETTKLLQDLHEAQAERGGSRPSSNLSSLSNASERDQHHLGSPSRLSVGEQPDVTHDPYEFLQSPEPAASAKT

[2] = Half life in rat at 10 mg/kg, po; assay type: ADME, organism-based; settings: in vivo
Peregrin = target: T2, Peregrin (Homo sapiens, UniProt P55201); assay: Inhibition of BRPF1 (unknown origin) measured after 70 mins by TR-FRET assay
T2 sequence (P55201 whole entry): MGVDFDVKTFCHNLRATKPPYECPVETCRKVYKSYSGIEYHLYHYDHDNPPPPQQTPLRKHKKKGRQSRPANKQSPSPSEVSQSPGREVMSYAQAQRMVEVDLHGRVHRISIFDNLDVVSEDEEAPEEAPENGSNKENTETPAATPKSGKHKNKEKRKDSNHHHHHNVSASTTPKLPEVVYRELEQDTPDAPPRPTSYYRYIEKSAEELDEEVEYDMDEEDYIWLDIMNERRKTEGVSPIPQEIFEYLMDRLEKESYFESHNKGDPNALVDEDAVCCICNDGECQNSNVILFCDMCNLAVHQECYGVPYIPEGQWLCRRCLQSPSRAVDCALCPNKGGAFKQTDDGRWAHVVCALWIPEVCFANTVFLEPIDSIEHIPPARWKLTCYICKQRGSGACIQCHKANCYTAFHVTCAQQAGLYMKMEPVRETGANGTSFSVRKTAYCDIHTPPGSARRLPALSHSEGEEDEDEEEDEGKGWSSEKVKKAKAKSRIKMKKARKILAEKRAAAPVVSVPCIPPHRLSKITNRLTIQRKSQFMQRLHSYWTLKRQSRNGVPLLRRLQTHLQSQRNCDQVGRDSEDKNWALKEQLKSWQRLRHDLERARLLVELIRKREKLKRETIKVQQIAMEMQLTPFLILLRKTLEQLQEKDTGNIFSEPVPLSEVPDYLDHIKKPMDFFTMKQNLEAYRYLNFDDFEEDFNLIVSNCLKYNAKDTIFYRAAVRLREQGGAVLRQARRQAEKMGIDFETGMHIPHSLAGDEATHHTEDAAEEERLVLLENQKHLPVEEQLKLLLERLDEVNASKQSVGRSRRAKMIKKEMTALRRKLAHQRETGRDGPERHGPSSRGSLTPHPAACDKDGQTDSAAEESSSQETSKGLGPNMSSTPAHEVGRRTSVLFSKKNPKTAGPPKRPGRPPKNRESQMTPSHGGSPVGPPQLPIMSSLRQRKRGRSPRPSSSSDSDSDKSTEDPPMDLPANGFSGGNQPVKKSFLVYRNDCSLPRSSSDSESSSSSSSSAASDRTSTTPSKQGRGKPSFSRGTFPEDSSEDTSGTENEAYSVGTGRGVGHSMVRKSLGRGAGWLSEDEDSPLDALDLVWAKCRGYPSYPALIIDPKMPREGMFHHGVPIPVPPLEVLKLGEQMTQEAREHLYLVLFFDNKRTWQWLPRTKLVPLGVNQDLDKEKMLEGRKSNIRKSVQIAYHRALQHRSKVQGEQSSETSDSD

[3] = Oral bioavailability in rat at 10 mg/kg; assay type: ADME, organism-based; settings: in vivo
Mus musculus = assay: In vivo inhibition of BET in BALB/c mouse assessed as suppression of LPS-induced IL-6 level in plasma at 15 mg/kg, po pretreated with compound followed by LPS challenge and measured after 2 hrs by ELISA; assay type: functional, organism-based
[4] = target: T3, Bromodomain-containing protein 3 (Homo sapiens, UniProt Q15059); assay: Inhibition of BRD3 BD2 (unknown origin) using biotinylated JQ1 analog as substrate measured after 20 mins by AlphaLISA assay
[5] = Intrinsic clearance in mouse liver microsomes
[6] = target: Bromodomain-containing protein 4 (Homo sapiens, UniProt O60885)
Description: Inhibition of His/FLAG-tagged BRD4 BD1 (unknown origin) using histone H4-TetraAcetylated-biotin peptide as substrate incubated for 20 mins by AlphaLISA assay

[7] = Volume of distribution at steady state in rat at 1 mg/kg, iv; assay type: ADME, organism-based; settings: in vivo, read-out: Vdss
[8] = target: T4, Bromodomain testis-specific protein (Homo sapiens, UniProt Q58F21); assay: Inhibition of BRDT BD1 (unknown origin) using biotinylated JQ1 analog as substrate measured after 20 mins by AlphaLISA assay
[9] = target: Nucleosome-remodeling factor subunit BPTF (Homo sapiens, UniProt Q12830); assay: Inhibition of BPTF (unknown origin) measured after 70 mins by TR-FRET assay
CREB-binding protein = CREB-binding protein (Homo sapiens, UniProt Q92793); assay: Inhibition of His-tagged CBP (unknown origin) using biotinylated acetylated peptide as substrate measured after 20 mins by AlphaLISA assay
[10] = Cmax in rat at 10 mg/kg, po; assay type: ADME, organism-based; design: route oral, dose 10 mg/kg; settings: in vivo
[11] = Half life in rat at 1 mg/kg, iv; assay type: ADME, organism-based; settings: in vivo
[12] = target: T3, Bromodomain-containing protein 3; assay: Inhibition of BRD3 BD1 (unknown origin) using biotinylated JQ1 analog as substrate measured after 20 mins by AlphaLISA assay
[13] = Inhibition of BET in human THP-1 cells assessed as suppression of LPS-induced IL-6 release measured after 16 hrs by chemiluminescence ELISA; assay type: cell-based; settings: THP-1, 16 h
[14] = Protein binding in dog plasma
[15] = target: T4, Bromodomain testis-specific protein; assay: Inhibition of BRDT BD2 (unknown origin) using biotinylated JQ1 analog as substrate measured after 20 mins by AlphaLISA assay
[16] = Intrinsic clearance in human liver microsomes
[17] = AUClast in rat at 10 mg/kg, po; assay type: ADME, organism-based; design: time 0 - last, route oral, dose 10 mg/kg; settings: in vivo
[18] = target: Bromodomain-containing protein 2 (Homo sapiens, UniProt P25440); assay: Inhibition of BRD2 BD2 (unknown origin) using biotinylated JQ1 analog as substrate measured after 20 mins by AlphaLISA assay
[19] = Protein binding in human plasma; assay type: ADME, cell-free; settings: read-out: PPB (converted)

T3 sequence (Q15059 whole entry): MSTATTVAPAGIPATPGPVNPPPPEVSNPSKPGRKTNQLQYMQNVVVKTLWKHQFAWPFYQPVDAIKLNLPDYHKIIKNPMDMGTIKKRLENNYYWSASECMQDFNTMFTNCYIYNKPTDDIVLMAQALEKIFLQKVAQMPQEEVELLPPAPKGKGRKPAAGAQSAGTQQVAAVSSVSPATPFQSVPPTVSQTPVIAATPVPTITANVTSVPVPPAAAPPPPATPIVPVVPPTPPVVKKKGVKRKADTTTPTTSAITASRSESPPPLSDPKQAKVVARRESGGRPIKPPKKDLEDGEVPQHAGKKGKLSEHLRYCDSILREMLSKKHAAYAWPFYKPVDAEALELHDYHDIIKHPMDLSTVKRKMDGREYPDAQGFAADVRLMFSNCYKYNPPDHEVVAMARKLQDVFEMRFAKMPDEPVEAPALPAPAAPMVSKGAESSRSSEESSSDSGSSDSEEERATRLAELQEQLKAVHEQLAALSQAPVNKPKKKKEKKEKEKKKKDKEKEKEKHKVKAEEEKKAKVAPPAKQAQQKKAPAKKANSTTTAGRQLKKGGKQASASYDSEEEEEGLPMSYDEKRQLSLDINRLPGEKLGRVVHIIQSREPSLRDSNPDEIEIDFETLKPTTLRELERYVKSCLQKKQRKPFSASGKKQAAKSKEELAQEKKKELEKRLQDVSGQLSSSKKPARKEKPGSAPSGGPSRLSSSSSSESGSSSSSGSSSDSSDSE
Chain of CREB-binding protein (Q92793 whole entry): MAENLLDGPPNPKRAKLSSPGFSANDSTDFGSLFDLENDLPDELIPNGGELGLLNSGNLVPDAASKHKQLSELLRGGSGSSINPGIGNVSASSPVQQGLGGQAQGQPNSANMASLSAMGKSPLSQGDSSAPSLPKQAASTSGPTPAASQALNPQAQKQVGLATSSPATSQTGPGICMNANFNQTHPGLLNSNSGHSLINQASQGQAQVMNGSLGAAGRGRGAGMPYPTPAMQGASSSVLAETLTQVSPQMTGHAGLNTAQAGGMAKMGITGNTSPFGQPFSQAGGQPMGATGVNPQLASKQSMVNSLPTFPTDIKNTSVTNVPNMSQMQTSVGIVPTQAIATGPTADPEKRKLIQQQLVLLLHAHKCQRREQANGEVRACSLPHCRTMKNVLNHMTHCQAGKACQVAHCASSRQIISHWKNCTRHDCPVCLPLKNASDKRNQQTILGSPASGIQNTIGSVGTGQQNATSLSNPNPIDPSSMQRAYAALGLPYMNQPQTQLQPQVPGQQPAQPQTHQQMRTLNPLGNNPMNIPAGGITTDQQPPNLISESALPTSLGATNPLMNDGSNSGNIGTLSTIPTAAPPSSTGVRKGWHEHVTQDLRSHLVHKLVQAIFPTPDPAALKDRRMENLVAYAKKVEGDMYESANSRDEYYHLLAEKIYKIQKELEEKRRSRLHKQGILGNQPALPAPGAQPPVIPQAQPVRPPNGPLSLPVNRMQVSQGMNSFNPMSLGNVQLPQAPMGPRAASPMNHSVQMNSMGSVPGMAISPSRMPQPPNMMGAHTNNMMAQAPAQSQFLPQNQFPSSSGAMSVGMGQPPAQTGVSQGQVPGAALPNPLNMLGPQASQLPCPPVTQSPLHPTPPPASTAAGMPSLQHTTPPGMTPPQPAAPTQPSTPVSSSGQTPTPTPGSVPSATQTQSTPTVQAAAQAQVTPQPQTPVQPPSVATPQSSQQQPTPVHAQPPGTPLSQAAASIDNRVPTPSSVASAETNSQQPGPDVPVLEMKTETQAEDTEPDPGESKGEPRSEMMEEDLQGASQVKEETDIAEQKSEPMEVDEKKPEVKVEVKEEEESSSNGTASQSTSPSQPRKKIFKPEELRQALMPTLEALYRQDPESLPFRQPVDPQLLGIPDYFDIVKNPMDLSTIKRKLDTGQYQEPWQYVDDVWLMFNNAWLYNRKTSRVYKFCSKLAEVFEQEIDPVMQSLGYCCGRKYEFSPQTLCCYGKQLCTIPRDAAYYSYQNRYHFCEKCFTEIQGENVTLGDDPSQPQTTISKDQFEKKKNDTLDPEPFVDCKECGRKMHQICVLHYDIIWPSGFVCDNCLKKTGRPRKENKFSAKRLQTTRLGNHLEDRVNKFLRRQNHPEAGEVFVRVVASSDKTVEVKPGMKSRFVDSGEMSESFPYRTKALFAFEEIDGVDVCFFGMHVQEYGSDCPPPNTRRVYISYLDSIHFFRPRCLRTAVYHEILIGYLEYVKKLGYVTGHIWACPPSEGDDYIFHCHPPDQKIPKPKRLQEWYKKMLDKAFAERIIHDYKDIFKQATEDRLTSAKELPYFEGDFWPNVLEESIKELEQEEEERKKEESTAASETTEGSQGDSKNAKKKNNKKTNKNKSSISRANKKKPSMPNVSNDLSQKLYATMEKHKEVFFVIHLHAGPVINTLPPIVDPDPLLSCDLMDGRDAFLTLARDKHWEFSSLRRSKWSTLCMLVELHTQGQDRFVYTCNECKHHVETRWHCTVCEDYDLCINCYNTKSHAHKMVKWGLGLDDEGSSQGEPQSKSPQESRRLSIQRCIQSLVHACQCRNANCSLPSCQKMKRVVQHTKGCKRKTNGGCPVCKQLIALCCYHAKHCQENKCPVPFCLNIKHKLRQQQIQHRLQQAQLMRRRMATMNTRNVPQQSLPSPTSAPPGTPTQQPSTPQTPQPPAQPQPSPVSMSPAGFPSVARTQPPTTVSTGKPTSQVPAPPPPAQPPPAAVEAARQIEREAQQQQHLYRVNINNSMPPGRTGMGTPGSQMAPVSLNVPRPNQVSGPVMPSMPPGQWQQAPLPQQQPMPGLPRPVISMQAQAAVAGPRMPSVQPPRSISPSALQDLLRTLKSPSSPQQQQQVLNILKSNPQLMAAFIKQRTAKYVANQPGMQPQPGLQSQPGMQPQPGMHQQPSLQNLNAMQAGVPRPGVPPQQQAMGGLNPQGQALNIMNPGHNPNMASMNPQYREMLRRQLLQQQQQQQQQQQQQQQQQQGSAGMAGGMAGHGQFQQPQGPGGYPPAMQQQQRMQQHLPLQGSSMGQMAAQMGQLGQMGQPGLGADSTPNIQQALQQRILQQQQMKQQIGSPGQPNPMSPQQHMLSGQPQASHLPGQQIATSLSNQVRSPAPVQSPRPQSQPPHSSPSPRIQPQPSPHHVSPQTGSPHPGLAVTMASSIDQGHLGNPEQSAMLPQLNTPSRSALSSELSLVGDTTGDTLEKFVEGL
Chain of Bromodomain-containing protein 2 (P25440 whole entry): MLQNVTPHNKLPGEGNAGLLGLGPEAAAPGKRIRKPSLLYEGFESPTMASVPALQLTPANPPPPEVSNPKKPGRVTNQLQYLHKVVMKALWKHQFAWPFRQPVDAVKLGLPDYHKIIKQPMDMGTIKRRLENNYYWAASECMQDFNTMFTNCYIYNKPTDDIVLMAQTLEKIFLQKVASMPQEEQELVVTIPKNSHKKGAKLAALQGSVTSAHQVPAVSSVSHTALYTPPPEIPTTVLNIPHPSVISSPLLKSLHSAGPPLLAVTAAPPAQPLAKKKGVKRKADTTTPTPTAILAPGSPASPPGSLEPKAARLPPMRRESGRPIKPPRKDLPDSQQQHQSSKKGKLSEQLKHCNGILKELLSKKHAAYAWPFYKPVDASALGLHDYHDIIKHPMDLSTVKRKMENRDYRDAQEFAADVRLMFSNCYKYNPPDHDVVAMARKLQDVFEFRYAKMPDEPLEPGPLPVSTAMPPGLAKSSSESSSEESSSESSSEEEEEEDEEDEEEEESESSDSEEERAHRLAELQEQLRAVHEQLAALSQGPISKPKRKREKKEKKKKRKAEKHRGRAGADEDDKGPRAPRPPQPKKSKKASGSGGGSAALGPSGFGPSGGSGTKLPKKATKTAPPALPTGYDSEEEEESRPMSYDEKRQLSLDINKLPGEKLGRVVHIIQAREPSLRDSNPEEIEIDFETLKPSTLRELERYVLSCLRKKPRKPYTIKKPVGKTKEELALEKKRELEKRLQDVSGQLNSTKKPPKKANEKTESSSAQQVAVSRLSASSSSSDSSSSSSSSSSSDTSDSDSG

## Cc1nnc2n1-c1ccc(-c3ccc(N)nc3)cc1N(c1ccc(Cl)cc1)C[C@H]2C
[1]
  IC50: > 15000 nM
[2]
  half-life: 1.8 h
Peregrin
  IC50: > 15000 nM
[3]
  bioavailability: 23%
Mus musculus
  inhibition: Active
[4]
  IC50: 3 nM
[5]
  microsomal CLint: 16 µL/min/mg
[6]
  IC50: 15 nM
[7]
  Vd: 2.2 L/kg
[8]
  IC50: 3 nM
[9]
  IC50: > 15000 nM
CREB-binding protein
  IC50: 2200 nM
[10]
  Cmax: 290 nM
[11]
  half-life: 0.67 h
[12]
  IC50: 3 nM
[13]
  EC50: 13 nM
[14]
  fraction unbound: 0.04
[15]
  IC50: 3 nM
[16]
  microsomal CLint: 5.1 µL/min/mg
[17]
  AUC(0-t): 1.4 µM·h
[18]
  IC50: 3 nM
[19]
  fraction unbound: 0.02
